Laboratory results as given in US10385024B2, “Compounds and methods for inhibiting NHE-mediated antiport in the treatment of disorders associated with fluid retention or salt overload and gastrointestinal tract disorders” (Ardelyx, Inc., priority 2012, dated 2019).

Assays:
Rat NHE-3 = target: T1, Rat NHE-3 (Rattus norvegicus, UniProt P26433); assay: Cell-based assay of NHE-3 activity (persistent inhibition, after washout); settings: OK cells with rat NHE-3 gene, 60 min incubation, recovery initiated 40 min after compound washout
T1 construct: expressed in transfected cells; host or cells: Opossum kidney (OK) cells (ATCC), transfected by electroporation
Outline: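 OK cells transiently expressing rat NHE-3 were exposed to 0-30 μM compound in NaCl-HEPES pH 7.4 for 60 min, then washed free of drug before NH4Cl/BCECF-AM loading and acid-loading in Na+-free choline buffer. Na+-dependent pH recovery rates (mean of ≥2 replicates) gave pIC50.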

[1] = test system: absorption of sodium from the intestinal lumen; assay: Inhibition of intestinal sodium absorption (urinary sodium and fecal form); format: in vivo, Sprague-Dawley rats; settings: rat; for response vs control in vivo at 3 mg/kg: 3 mg/kg oral gavage, urine 16 h post-dose, asterisks = significance vs vehicle (*P<0.05, **P<0.01, ***P<0.001), read-out: uNa (% of vehicle)
Outline: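 Sprague-Dawley rats (8 weeks, n=6) dosed by oral gavage with compound or water vehicle (10 mL/kg) in late afternoon, then housed in metabolic cages. Over 16 h, urinary sodium measured by ion chromatography and expressed as % of vehicle mean; fecal form scored 1–5, averaged from two observations.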

Fecal recovery = format: in vivo, Sprague Dawley rats; settings: male, Sprague-Dawley, faeces; rat, 1 mg/kg oral gavage, collection time 48 h
Experimental: Three male Sprague Dawley rats were administered 1 mg/kg test compound by oral gavage. Feces were collected from study animals from 0-48 or 0-72 hours after dosing, dried by lyophilization, and homogenized. Replicate aliquots of 40-60 mg each were subjected to extraction/protein precipitation with 7:1 acetonitrile:water and centrifuged. Supernatants were diluted 1:10 in 50:50 acetonitrile:water prior to analysis by LC-MS/MS. Compound concentrations, determined by interpolation from a standard calibration curve prepared in blank feces matrix, were converted to the percentage of dosed material recovered by taking into account the total collected fecal matter. The percent recovery for each rat was reported as the mean of the calculations from replicate samples. The overall percent recovery (Fecal Recovery [%]) was reported as the mean percent recovery from three rats. Accurate quality control sample recoveries were confirmed in each run, and extraction efficiency was periodically verified.

T1 sequence (P26433 29-831): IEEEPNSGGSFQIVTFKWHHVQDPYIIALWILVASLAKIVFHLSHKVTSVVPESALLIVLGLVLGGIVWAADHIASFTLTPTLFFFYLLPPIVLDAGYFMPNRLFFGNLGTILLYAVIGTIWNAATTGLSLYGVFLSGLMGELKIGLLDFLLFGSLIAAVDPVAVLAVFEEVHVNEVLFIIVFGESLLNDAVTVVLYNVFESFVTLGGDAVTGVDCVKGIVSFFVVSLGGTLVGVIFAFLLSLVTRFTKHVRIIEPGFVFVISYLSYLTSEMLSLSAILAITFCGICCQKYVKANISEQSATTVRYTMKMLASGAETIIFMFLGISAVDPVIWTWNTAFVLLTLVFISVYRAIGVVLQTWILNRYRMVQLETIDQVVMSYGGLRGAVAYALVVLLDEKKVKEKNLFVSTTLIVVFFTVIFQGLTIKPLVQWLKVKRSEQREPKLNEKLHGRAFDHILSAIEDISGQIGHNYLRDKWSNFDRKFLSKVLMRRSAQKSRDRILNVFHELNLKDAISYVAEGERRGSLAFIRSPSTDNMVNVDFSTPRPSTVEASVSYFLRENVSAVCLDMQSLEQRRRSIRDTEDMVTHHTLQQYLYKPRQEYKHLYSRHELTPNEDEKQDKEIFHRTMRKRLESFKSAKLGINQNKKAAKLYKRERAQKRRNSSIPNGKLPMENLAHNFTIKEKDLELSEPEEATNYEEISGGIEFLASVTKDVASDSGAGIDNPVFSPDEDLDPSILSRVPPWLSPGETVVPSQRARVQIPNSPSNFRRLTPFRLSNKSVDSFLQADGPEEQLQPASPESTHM

| Structure (SMILES) | Rat NHE3 pIC50 (persistent) (Rat NHE-3) | FFS ([1]; fecal form score, scale 1 (normal pellet) to 5 (liquid fecal streams), group average, 3 mg/kg oral, 16 h post-dose, vehicle = 1) | response vs control in vivo at 3 mg/kg [1] | dose excreted (Fecal recovery) |
| --- | --- | --- | --- | --- |
| CN1Cc2c(Cl)cc(Cl)cc2[C@H](c2cccc(S(=O)(=O)NCCOCCOCCN(C)C(=O)NCCCN(CCCNC(=O)N(C)CCOCCOCCNS(=O)(=O)c3cccc([C@@H]4CN(C)Cc5c(Cl)cc(Cl)cc54)c3)CCCNC(=O)N(C)CCOCCOCCNS(=O)(=O)c3cccc([C@@H]4CN(C)Cc5c(Cl)cc(Cl)cc54)c3)c2)C1 [Example 55] | C (C NHE3 pIC50 > 7) | 2 | 35 to 75% | 64.6% |
| CN1Cc2c(Cl)cc(Cl)cc2[C@H](c2cccc(S(=O)(=O)NCCOCCOCCNC(=O)NCCCC(N)(CCCNC(=O)NCCOCCOCCNS(=O)(=O)c3cccc([C@@H]4CN(C)Cc5c(Cl)cc(Cl)cc54)c3)CCCNC(=O)NCCOCCOCCNS(=O)(=O)c3cccc([C@@H]4CN(C)Cc5c(Cl)cc(Cl)cc54)c3)c2)C1 [Example 62] | C (C NHE3 pIC50 > 7) |  | 35 to 75% | 81.5% |
| CN1Cc2c(Cl)cc(Cl)cc2[C@H](c2cccc(S(=O)(=O)NCCOCCOCCNC(=O)NCCCC(CCCNC(=O)NCCOCCOCCNS(=O)(=O)c3cccc([C@@H]4CN(C)Cc5c(Cl)cc(Cl)cc54)c3)(CCCNC(=O)NCCOCCOCCNS(=O)(=O)c3cccc([C@@H]4CN(C)Cc5c(Cl)cc(Cl)cc54)c3)NC(=O)NC[C@H](O)[C@@H](O)[C@H](O)[C@H](O)CO)c2)C1 [Example 65] | C (C NHE3 pIC50 > 7) |  | 35 to 75% | 112% |
